Publication PMC7385619, “A triple action CDK4/6-PI3K-BET inhibitor with augmented cancer cell cytotoxicity” (Cell Discovery, 2020)

Tested on: neuroblastoma cells (CHLA-255, CHLA-136, and SMS-KNCR)
Experiment: Cell viability (cytotoxicity) assay, neuroblastoma cells
Assay type: cell-based
Details: Homo sapiens, 48 hours, CCK8 or Alamar Blue, curves of Fig. 1f-j, read-out: Half maximal inhibitory concentration (IC50) in cell line cytotoxicity assays, Neuroblastoma

CN(C)C(=O)c1cc2cnc(Nc3ccc(-c4csc5c(=O)cc(N6CCOCC6)oc45)cc3)nc2n1C1CCCC1 [SRX3177]
IC50: 550 nM
